Reference: US20250230193A1, “CYCLIC COMPOUND HAVING SELECTIVE KRAS INHIBITORY EFFECT ON HRAS AND NRAS” (CHUGAI SEIYAKU KABUSHIKI KAISHA, priority 2022, published 2025)

How the values were obtained:
[1] = biological target: GDP-bound NRAS wild-type protein (Homo sapiens, UniProt P01111); assay: Binding to NRAS by surface plasmon resonance (SPR), Single Cycle Kinetics; settings: SPR; for NRAS/KRAS (ratio of KD value with respect to NRAS to KD value with respect to KRAS): GDP-bound NRAS wild-type vs GDP-bound KRAS wild-type
Sequence of GDP-bound NRAS wild-type protein (P01111 whole entry): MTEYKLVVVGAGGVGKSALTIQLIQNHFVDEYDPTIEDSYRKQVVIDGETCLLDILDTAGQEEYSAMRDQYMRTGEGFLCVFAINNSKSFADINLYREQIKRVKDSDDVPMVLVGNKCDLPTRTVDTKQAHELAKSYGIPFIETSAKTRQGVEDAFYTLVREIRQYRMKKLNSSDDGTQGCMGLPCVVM

[2] = biological target: GDP-bound HRAS wild-type protein (Homo sapiens, UniProt P01112); assay: Binding to HRAS by surface plasmon resonance (SPR), Single Cycle Kinetics; settings: SPR; for HRAS/KRAS (ratio of KD value with respect to HRAS to KD value with respect to KRAS): GDP-bound HRAS wild-type vs GDP-bound KRAS wild-type
Sequence of GDP-bound HRAS wild-type protein (P01112 whole entry): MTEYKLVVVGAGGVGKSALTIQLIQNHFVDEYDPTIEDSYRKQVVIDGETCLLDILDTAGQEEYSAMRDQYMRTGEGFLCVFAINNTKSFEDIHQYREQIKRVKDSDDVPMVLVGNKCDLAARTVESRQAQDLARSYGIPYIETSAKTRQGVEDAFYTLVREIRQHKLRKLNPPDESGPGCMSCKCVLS

Compound | NRAS/KRAS (ratio of KD value with respect to NRAS to KD value with respect to KRAS) [1] | HRAS/KRAS (ratio of KD value with respect to HRAS to KD value with respect to KRAS) [2] | NRAS/KRAS (ratio of KD value for GDP-bound NRAS wild-type protein to KD value for KRAS) ([1]; KD ratio class) | HRAS/KRAS (ratio of KD value for GDP-bound HRAS wild-type protein to KD value for KRAS) ([2]; KD ratio class)
CCO[C@@H]1C[C@H]2C(=O)NC3(CCC3)C(=O)N(C)[C@@H](C3CCCC3)C(=O)N(C)[C@H](C(=O)N3CCOCC3)CC(=O)N(C)[C@@H](Cc3ccc(C#N)cc3)C(=O)N[C@@H]([C@@H](C)CC)C(=O)N(C)CC(=O)N(C)[C@H]3CCCCCN(C3=O)[C@@H](Cc3ccc(F)cc3)C(=O)N(C)CC(=O)N[C@@H](CCc3cc(F)c(C(F)(F)F)c(F)c3)C(=O)N2C1 [PP1187] | B (a compound having 3 or more and less than 10 is denoted as B) | B (a compound having 3 or more and less than 10 is denoted as B) | – | –
CCO[C@@H]1C[C@H]2C(=O)NC3(CCC3)C(=O)N(C)[C@@H](C3CCCC3)C(=O)N(C)[C@H](C(=O)N3CCOCC3)CC(=O)N(C)[C@@H](Cc3ccc(Cl)c(Cl)c3)C(=O)N[C@@H]([C@@H](C)CC)C(=O)N(C)CC(=O)N(C)[C@H]3CCCCCN(C3=O)[C@@H](Cc3ccc(F)cc3)C(=O)N(C)CC(=O)N[C@@H](CCc3cc(F)c(C(F)(F)F)c(F)c3)C(=O)N2C1 [PP1188] | B (a compound having 3 or more and less than 10 is denoted as B) | B (a compound having 3 or more and less than 10 is denoted as B) | – | –
CCO[C@@H]1C[C@H]2C(=O)NC3(CCC3)C(=O)N(C)[C@@H](C3CCCC3)C(=O)N(C)[C@H](C(=O)N(C)C)CC(=O)N(C)[C@@H](C)C(=O)N[C@@H]([C@@H](C)CC)C(=O)N(C)CC(=O)N(C)[C@H]3CCCCCN(C3=O)[C@@H](Cc3ccc(F)cc3)C(=O)N(C)CC(=O)N[C@@H](CCc3cc(F)c(C(F)(F)F)c(F)c3)C(=O)N2C1 [PP1189] | B (a compound having 3 or more and less than 10 is denoted as B) | B (a compound having 3 or more and less than 10 is denoted as B) | – | –
CCO[C@@H]1C[C@H]2C(=O)NC3(CCC3)C(=O)N(C)[C@@H](C3CCCC3)C(=O)N(C)[C@H](C(=O)N(C)C)CC(=O)N(C)[C@@H](CC)C(=O)N[C@@H]([C@@H](C)CC)C(=O)N(C)CC(=O)N(C)[C@H]3CCCCCN(C3=O)[C@@H](Cc3ccc(F)cc3)C(=O)N(C)CC(=O)N[C@@H](CCc3cc(F)c(C(F)(F)F)c(F)c3)C(=O)N2C1 [PP1190] | B (a compound having 3 or more and less than 10 is denoted as B) | B (a compound having 3 or more and less than 10 is denoted as B) | – | –
CCO[C@@H]1C[C@H]2C(=O)NC3(CCC3)C(=O)N(C)[C@@H](C3CCCC3)C(=O)N(C)[C@H](C(=O)N(C)C)CC(=O)N(C)[C@@H](CC(F)F)C(=O)N[C@@H]([C@@H](C)CC)C(=O)N(C)CC(=O)N(C)[C@H]3CCCCCN(C3=O)[C@@H](Cc3ccc(F)cc3)C(=O)N(C)CC(=O)N[C@@H](CCc3cc(F)c(C(F)(F)F)c(F)c3)C(=O)N2C1 [PP1191] | A (a compound having 10 or more and less than 20 is denoted as A) | B (a compound having 3 or more and less than 10 is denoted as B) | – | –
CCO[C@@H]1C[C@H]2C(=O)NC3(CCC3)C(=O)N(C)[C@@H](C3CCCC3)C(=O)N(C)[C@H](C(=O)N(C)C)CC(=O)N(C)[C@@H](CC3CC3)C(=O)N[C@@H]([C@@H](C)CC)C(=O)N(C)CC(=O)N(C)[C@H]3CCCCCN(C3=O)[C@@H](Cc3ccc(F)cc3)C(=O)N(C)CC(=O)N[C@@H](CCc3cc(F)c(C(F)(F)F)c(F)c3)C(=O)N2C1 [PP1192] | B (a compound having 3 or more and less than 10 is denoted as B) | A (a compound having 10 or more and less than 20 is denoted as A) | – | –
CCO[C@@H]1C[C@H]2C(=O)NC3(CCC3)C(=O)N(C)[C@@H](C3CCCC3)C(=O)N(C)[C@H](C(=O)N(C)C)CC(=O)N(C)[C@@H](COC)C(=O)N[C@@H]([C@@H](C)CC)C(=O)N(C)CC(=O)N(C)[C@H]3CCCCCN(C3=O)[C@@H](Cc3ccc(F)cc3)C(=O)N(C)CC(=O)N[C@@H](CCc3cc(F)c(C(F)(F)F)c(F)c3)C(=O)N2C1 [PP1193] | B (a compound having 3 or more and less than 10 is denoted as B) | B (a compound having 3 or more and less than 10 is denoted as B) | – | –
CCO[C@@H]1C[C@H]2C(=O)NC3(CCC3)C(=O)N(C)[C@@H](C3CCCC3)C(=O)N(C)[C@H](C(=O)N(C)C)CC(=O)N(C)[C@@H](CCOC)C(=O)N[C@@H]([C@@H](C)CC)C(=O)N(C)CC(=O)N(C)[C@H]3CCCCCN(C3=O)[C@@H](Cc3ccc(F)cc3)C(=O)N(C)CC(=O)N[C@@H](CCc3cc(F)c(C(F)(F)F)c(F)c3)C(=O)N2C1 [PP1194] | B (a compound having 3 or more and less than 10 is denoted as B) | B (a compound having 3 or more and less than 10 is denoted as B) | – | –
CCO[C@@H]1C[C@H]2C(=O)NC3(CCC3)C(=O)N(C)[C@@H](C3CCCC3)C(=O)N(C)[C@H](C(=O)N(C)C)CC(=O)N(C)[C@@H](Cc3ccccc3)C(=O)N[C@@H]([C@@H](C)CC)C(=O)N(C)CC(=O)N(C)[C@H]3CCCCCN(C3=O)[C@@H](Cc3ccc(F)cc3)C(=O)N(C)CC(=O)N[C@@H](CCc3cc(F)c(C(F)(F)F)c(F)c3)C(=O)N2C1 [PP1195] | B (a compound having 3 or more and less than 10 is denoted as B) | B (a compound having 3 or more and less than 10 is denoted as B) | – | –
CCO[C@@H]1C[C@H]2C(=O)NC3(CCC3)C(=O)N(C)[C@@H](C3CCCC3)C(=O)N(C)[C@H](C(=O)N(C)C)CC(=O)N(C)[C@@H](Cc3cccnc3)C(=O)N[C@@H]([C@@H](C)CC)C(=O)N(C)CC(=O)N(C)[C@H]3CCCCCN(C3=O)[C@@H](Cc3ccc(F)cc3)C(=O)N(C)CC(=O)N[C@@H](CCc3cc(F)c(C(F)(F)F)c(F)c3)C(=O)N2C1 [PP1196] | B (a compound having 3 or more and less than 10 is denoted as B) | B (a compound having 3 or more and less than 10 is denoted as B) | – | –
CCO[C@@H]1C[C@H]2C(=O)NC3(CCC3)C(=O)N(C)[C@@H](C3CCCC3)C(=O)N(C)[C@H](C(=O)N(C)C)CC(=O)N(C)[C@@H](Cc3cccs3)C(=O)N[C@@H]([C@@H](C)CC)C(=O)N(C)CC(=O)N(C)[C@H]3CCCCCN(C3=O)[C@@H](Cc3ccc(F)cc3)C(=O)N(C)CC(=O)N[C@@H](CCc3cc(F)c(C(F)(F)F)c(F)c3)C(=O)N2C1 [PP1197] | B (a compound having 3 or more and less than 10 is denoted as B) | B (a compound having 3 or more and less than 10 is denoted as B) | – | –
CCO[C@@H]1C[C@H]2C(=O)NC3(CCC3)C(=O)N(C)[C@@H](C(CC)CC)C(=O)N(C)[C@H](C(=O)N(C)C)CC(=O)N(C)[C@@H](C)C(=O)N[C@@H]([C@@H](C)CC)C(=O)N(C)CC(=O)N(C)[C@H]3C/C=C\CCN(C3=O)[C@@H](Cc3ccc(C(F)(F)F)cc3)C(=O)N(C)CC(=O)N[C@@H](CCc3cc(F)c(C(F)(F)F)c(F)c3)C(=O)N2C1 [PP1199] | A (a compound having 10 or more and less than 20 is denoted as A) | A (a compound having 10 or more and less than 20 is denoted as A) | – | –
CCO[C@@H]1C[C@H]2C(=O)NC3(CCC3)C(=O)N(C)[C@@H](C(CC)CC)C(=O)N(C)[C@H](C(=O)N(C)C)CC(=O)N(C)[C@@H](CC)C(=O)N[C@@H]([C@@H](C)CC)C(=O)N(C)CC(=O)N(C)[C@H]3C/C=C\CCN(C3=O)[C@@H](Cc3ccc(C(F)(F)F)cc3)C(=O)N(C)CC(=O)N[C@@H](CCc3cc(F)c(C(F)(F)F)c(F)c3)C(=O)N2C1 [PP1200] | AA (a compound having 20 or more is denoted as AA) | A (a compound having 10 or more and less than 20 is denoted as A) | – | –
CCO[C@@H]1C[C@H]2C(=O)NC3(CCC3)C(=O)N(C)[C@@H](C(CC)CC)C(=O)N(C)[C@H](C(=O)N(C)C)CC(=O)N(C)[C@@H](CC(C)C)C(=O)N[C@@H]([C@@H](C)CC)C(=O)N(C)CC(=O)N(C)[C@H]3C/C=C\CCN(C3=O)[C@@H](Cc3ccc(C(F)(F)F)cc3)C(=O)N(C)CC(=O)N[C@@H](CCc3cc(F)c(C(F)(F)F)c(F)c3)C(=O)N2C1 [PP1201] | AA (a compound having 20 or more is denoted as AA) | A (a compound having 10 or more and less than 20 is denoted as A) | – | –
CCO[C@@H]1C[C@H]2C(=O)NC3(CCC3)C(=O)N(C)[C@@H](C3CCCC3)C(=O)N(C)[C@H](C(=O)N(C)CC)CC(=O)N(C)[C@@H](CC(C)C)C(=O)N[C@@H]([C@@H](C)CC)C(=O)N(C)CC(=O)N(C)[C@H]3C/C=C\CCN(C3=O)[C@@H](Cc3ccc(C(F)(F)F)cc3)C(=O)N(C)CC(=O)N[C@@H](CCc3cc(F)c(C(F)(F)F)c(F)c3)C(=O)N2C1 [PP1300] | – | – | A (a compound having 10 or more and less than 20 is denoted as A) | A (a compound having 10 or more and less than 20 is denoted as A)
